Source: PubChem BioAssay AID1788 (Vanderbilt High Throughput Screening Facility, 2009)
Active and inactive are the calls of the source. How the calls were made is not given here.

Columns and labels:
[1] = system: Bradykinin B2 (human); test: PubChem AID 1788; settings: MDS Pharma lead profiling panel, radioligand binding, at 10 µM, hits give high values
[2] = system: Glutamate Kainate (rat); test: PubChem AID 1788; settings: MDS Pharma lead profiling panel, radioligand binding, at 10 µM, hits give high values
[3] = molecular target: Delta-type opioid receptor (Homo sapiens) (UniProt P41143); test: PubChem AID 1788; settings: MDS Pharma lead profiling panel, radioligand binding; Opiate d (OP1, DOP) (human); at 10 µM; hits give high values
Chain of Delta-type opioid receptor (Homo sapiens) (P41143 whole entry, looked up): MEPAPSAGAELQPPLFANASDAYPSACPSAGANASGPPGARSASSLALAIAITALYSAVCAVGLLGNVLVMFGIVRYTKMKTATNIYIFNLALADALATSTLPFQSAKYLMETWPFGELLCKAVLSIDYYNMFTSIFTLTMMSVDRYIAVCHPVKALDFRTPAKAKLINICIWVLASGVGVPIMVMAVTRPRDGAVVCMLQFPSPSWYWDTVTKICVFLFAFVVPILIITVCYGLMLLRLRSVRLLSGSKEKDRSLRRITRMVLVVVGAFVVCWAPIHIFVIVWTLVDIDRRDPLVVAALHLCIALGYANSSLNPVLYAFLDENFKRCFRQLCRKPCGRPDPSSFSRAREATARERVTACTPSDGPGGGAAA

[4] = system: Bradykinin B1 (human); test: PubChem AID 1788; settings: MDS Pharma lead profiling panel, radioligand binding, at 10 µM, hits give high values
[5] = PubChem AID 1788; settings: MDS Pharma lead profiling panel, radioligand binding; GABAA central (rat), Muscimol site; at 10 µM; hits give high values
[6] = system: Histamine H2 (human); test: PubChem AID 1788; settings: MDS Pharma lead profiling panel, radioligand binding, at 10 µM, hits give high values
[7] = molecular target: D(2) dopamine receptor (Homo sapiens) (UniProt P14416); test: PubChem AID 1788; settings: MDS Pharma lead profiling panel, radioligand binding; Dopamine D2S (human); at 10 µM; hits give high values
Chain of D(2) dopamine receptor (Homo sapiens) (P14416 whole entry, looked up): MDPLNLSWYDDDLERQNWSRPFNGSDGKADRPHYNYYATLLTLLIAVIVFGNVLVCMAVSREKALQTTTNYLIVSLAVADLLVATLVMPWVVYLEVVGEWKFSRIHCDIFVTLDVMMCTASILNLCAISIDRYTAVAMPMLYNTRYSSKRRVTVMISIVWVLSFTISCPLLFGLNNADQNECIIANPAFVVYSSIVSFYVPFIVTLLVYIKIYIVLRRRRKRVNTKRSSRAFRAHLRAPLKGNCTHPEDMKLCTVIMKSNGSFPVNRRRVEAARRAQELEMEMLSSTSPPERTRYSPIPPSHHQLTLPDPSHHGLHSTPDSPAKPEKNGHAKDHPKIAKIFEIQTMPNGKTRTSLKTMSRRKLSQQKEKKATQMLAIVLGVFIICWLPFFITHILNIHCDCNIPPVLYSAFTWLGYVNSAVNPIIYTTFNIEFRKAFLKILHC

[8] = system: Adrenergic b1 (human); test: PubChem AID 1788; settings: MDS Pharma lead profiling panel, radioligand binding, at 10 µM, hits give high values
[9] = system: Leukotriene Cysteinyl CysLT1 (human); test: PubChem AID 1788; settings: MDS Pharma lead profiling panel, radioligand binding, at 10 µM, hits give high values
[10] = system: G protein-coupled receptor GPR103 (human); test: PubChem AID 1788; settings: MDS Pharma lead profiling panel, radioligand binding, at 10 µM, hits give high values
[11] = system: Vesicular inhibitory amino acid transporter (Rattus norvegicus) + Pro-epidermal growth factor (Homo sapiens) + Acetylcholine receptor subunit alpha (Homo sapiens) + Estrogen receptor (Homo sapiens) + Glucocorticoid receptor (Homo sapiens) + Sodium channel protein type 1 subunit alpha (Rattus norvegicus) + Beta-2 adrenergic receptor (Homo sapiens) + Muscarinic acetylcholine receptor M2 (Homo sapiens) + Beta-1 adrenergic receptor (Homo sapiens) + 5-hydroxytryptamine receptor 1A (Homo sapiens) + Alpha-2A adrenergic receptor (Homo sapiens) + Muscarinic acetylcholine receptor M1 (Homo sapiens) + Interleukin-1 receptor type 1 (Mus musculus) + D(2) dopamine receptor (Homo sapiens) + Androgen receptor (Rattus norvegicus) + Gamma-aminobutyric acid receptor subunit gamma-2 (Rattus norvegicus) + Muscarinic acetylcholine receptor M3 (Homo sapiens) + D(1A) dopamine receptor (Homo sapiens) + D(4) dopamine receptor (Homo sapiens) + Glutamate receptor ionotropic, kainate 1 (Rattus norvegicus) + Sodium-dependent noradrenaline transporter (Homo sapiens) + Endothelin receptor type B (Homo sapiens) + Alpha-1D adrenergic receptor (Homo sapiens) + Endothelin-1 receptor (Homo sapiens) + Substance-P receptor (Homo sapiens) + Neuropeptide Y receptor type 1 (Homo sapiens) + Adenosine receptor A2a (Homo sapiens) + B2 bradykinin receptor (Homo sapiens) + Adenosine receptor A1 (Homo sapiens) + Sodium-dependent serotonin transporter (Homo sapiens) + Neuronal acetylcholine receptor subunit alpha-3 (Homo …; test: PubChem AID 1788; settings: MDS Pharma lead profiling panel, radioligand binding; at 10 µM; hits give high values
[12] = molecular target: Voltage-gated inwardly rectifying potassium channel KCNH2 (Homo sapiens) (UniProt Q12809); test: PubChem AID 1788; settings: MDS Pharma lead profiling panel, radioligand binding; Potassium Channel hERG (human); at 10 µM; hits give high values
Chain of Voltage-gated inwardly rectifying potassium channel KCNH2 (Homo sapiens) (Q12809 whole entry, looked up): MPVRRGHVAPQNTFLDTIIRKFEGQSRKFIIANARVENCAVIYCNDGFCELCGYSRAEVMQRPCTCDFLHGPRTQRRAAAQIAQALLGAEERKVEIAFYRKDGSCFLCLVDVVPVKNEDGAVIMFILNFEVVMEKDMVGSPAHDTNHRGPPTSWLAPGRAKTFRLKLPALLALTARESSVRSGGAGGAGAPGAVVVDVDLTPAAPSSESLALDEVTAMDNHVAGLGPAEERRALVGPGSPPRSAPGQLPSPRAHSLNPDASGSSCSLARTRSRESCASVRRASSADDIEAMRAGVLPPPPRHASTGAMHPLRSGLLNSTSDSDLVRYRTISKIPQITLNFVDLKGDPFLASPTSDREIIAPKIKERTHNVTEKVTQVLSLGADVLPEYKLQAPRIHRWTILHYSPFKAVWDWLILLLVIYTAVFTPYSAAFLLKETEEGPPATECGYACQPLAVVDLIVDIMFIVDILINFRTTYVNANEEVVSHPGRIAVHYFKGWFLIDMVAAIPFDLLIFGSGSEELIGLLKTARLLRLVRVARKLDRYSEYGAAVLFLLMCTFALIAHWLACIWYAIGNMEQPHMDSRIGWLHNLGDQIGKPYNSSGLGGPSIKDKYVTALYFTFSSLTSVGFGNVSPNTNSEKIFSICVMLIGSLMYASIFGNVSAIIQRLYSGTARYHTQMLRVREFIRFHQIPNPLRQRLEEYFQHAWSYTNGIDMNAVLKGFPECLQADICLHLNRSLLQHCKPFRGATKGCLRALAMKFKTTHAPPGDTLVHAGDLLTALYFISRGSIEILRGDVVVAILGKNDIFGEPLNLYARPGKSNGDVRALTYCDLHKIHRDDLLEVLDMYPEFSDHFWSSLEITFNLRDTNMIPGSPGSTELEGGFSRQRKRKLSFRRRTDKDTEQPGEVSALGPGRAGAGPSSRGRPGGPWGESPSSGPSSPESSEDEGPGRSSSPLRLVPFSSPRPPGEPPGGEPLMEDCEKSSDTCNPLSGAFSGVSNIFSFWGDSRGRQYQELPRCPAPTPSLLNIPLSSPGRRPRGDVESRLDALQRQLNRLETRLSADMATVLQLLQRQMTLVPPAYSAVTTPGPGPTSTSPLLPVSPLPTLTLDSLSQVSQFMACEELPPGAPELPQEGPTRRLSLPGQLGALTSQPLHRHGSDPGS

[13] = system: Interleukin IL-1 (mouse); test: PubChem AID 1788; settings: MDS Pharma lead profiling panel, radioligand binding, at 10 µM, hits give high values
[14] = system: Imidazoline I2 central (rat); test: PubChem AID 1788; settings: MDS Pharma lead profiling panel, radioligand binding, at 10 µM, hits give high values
[15] = system: Calcium channel L-type (rat); test: PubChem AID 1788; settings: MDS Pharma lead profiling panel, radioligand binding, dihydropyridine site, at 10 µM, hits give high values
[16] = molecular target: Glucocorticoid receptor (Homo sapiens) (UniProt P04150); test: PubChem AID 1788; settings: MDS Pharma lead profiling panel, radioligand binding, at 10 µM, hits give high values
Chain of Glucocorticoid receptor (Homo sapiens) (P04150 whole entry, looked up): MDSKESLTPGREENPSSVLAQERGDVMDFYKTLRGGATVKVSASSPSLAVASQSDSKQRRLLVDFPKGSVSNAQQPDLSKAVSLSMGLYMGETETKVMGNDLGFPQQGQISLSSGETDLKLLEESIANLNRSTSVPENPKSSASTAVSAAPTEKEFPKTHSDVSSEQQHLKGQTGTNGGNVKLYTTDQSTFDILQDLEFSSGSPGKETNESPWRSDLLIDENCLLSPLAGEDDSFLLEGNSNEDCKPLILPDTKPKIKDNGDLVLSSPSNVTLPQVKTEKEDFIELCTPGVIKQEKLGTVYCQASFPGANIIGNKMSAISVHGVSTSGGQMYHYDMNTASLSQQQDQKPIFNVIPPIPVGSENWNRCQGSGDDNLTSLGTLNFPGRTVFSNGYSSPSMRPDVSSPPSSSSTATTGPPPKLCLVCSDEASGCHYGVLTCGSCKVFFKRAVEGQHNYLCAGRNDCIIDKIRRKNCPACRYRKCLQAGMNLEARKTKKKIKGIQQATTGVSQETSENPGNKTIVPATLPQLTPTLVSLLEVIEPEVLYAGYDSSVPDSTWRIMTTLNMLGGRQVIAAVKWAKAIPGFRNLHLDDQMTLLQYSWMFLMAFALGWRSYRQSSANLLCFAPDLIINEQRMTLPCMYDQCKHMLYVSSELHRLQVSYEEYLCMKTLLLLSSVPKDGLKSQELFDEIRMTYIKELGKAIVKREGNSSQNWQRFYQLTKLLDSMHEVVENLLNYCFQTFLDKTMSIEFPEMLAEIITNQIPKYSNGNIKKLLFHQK

[17] = system: Endothelin ETA (human); test: PubChem AID 1788; settings: MDS Pharma lead profiling panel, radioligand binding, at 10 µM, hits give high values
[18] = system: Sigma s1 (human); test: PubChem AID 1788; settings: MDS Pharma lead profiling panel, radioligand binding, at 10 µM, hits give high values
[19] = molecular target: Muscarinic acetylcholine receptor M2 (Homo sapiens) (UniProt P08172); test: PubChem AID 1788; settings: MDS Pharma lead profiling panel, radioligand binding, at 10 µM, hits give high values
Chain of Muscarinic acetylcholine receptor M2 (Homo sapiens) (P08172 whole entry, looked up): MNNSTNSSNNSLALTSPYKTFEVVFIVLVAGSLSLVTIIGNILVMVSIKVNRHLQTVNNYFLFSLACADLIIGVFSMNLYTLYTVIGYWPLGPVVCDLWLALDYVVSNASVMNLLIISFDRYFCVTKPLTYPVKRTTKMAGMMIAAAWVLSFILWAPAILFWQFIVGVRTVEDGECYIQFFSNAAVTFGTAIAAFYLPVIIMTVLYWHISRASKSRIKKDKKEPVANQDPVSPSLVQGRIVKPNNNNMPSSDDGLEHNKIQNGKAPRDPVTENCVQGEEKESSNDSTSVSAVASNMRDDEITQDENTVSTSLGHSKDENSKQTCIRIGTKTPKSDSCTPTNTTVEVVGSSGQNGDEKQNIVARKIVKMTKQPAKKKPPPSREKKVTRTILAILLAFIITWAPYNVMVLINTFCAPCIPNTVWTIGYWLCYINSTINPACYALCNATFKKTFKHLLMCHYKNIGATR

[20] = system: GABA B1A (human); test: PubChem AID 1788; settings: MDS Pharma lead profiling panel, radioligand binding, at 10 µM, hits give high values
[21] = system: Androgen (testosterone) AR (rat); test: PubChem AID 1788; settings: MDS Pharma lead profiling panel, radioligand binding, at 10 µM, hits give high values
[22] = system: Epidermal Growth Factor (EGF) (human); test: PubChem AID 1788; settings: MDS Pharma lead profiling panel, radioligand binding, at 10 µM, hits give high values
[23] = molecular target: Beta-2 adrenergic receptor (Homo sapiens) (UniProt P07550); test: PubChem AID 1788; settings: MDS Pharma lead profiling panel, radioligand binding; Adrenergic b2 (human); at 10 µM; hits give high values
Chain of Beta-2 adrenergic receptor (Homo sapiens) (P07550 whole entry, looked up): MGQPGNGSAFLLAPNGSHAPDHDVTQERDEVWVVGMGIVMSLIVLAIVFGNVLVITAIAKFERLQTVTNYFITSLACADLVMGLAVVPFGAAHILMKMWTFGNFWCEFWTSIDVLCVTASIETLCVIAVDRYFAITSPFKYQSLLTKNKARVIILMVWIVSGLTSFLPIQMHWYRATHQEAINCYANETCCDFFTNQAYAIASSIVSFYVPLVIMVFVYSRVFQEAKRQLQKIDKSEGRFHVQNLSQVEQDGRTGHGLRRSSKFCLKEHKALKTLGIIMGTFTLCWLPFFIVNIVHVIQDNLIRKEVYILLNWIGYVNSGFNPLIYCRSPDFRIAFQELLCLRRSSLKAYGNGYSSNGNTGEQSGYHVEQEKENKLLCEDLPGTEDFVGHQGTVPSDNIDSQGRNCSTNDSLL

[24] = molecular target: Estrogen receptor (Homo sapiens) (UniProt P03372); test: PubChem AID 1788; settings: MDS Pharma lead profiling panel, radioligand binding; Estrogen ER a (human); at 10 µM; hits give high values
Chain of Estrogen receptor (Homo sapiens) (P03372 whole entry, looked up): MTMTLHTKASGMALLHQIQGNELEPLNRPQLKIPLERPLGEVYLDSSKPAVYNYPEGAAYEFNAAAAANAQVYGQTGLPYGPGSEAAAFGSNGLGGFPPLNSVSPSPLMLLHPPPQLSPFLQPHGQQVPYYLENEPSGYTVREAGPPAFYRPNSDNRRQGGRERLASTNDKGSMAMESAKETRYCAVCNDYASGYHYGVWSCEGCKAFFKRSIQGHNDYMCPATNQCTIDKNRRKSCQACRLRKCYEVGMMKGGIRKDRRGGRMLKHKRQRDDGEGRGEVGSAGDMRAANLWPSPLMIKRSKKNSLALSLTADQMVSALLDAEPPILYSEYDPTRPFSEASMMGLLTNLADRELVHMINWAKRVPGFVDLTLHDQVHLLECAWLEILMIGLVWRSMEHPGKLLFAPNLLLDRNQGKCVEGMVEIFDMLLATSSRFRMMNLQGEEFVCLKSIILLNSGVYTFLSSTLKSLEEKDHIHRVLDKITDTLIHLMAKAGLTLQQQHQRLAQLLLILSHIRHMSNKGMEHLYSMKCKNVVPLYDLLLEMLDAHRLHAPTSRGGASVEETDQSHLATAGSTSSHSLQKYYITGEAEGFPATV

[25] = molecular target: Kappa-type opioid receptor (Homo sapiens) (UniProt P41145); test: PubChem AID 1788; settings: MDS Pharma lead profiling panel, radioligand binding; Opiate k (OP2, KOP) (human); at 10 µM; hits give high values
Chain of Kappa-type opioid receptor (Homo sapiens) (P41145 whole entry, looked up): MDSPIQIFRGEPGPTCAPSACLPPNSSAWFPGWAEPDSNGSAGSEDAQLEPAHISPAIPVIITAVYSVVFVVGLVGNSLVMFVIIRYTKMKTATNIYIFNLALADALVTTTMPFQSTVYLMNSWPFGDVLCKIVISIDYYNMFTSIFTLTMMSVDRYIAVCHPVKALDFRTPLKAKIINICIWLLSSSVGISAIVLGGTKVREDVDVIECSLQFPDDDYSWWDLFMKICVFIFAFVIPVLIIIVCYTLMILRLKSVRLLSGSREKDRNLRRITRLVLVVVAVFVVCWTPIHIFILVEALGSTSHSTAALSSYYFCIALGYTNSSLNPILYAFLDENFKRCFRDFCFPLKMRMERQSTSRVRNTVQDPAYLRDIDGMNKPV

[26] = system: Tachykinin NK1 (human); test: PubChem AID 1788; settings: MDS Pharma lead profiling panel, radioligand binding, at 10 µM, hits give high values
[27] = system: Histamine H1 (human); test: PubChem AID 1788; settings: MDS Pharma lead profiling panel, radioligand binding, at 10 µM, hits give high values

Measured: inhibition

CCOC(=O)N1CCC(NCCNC(=O)c2ccccc2C)CC1
inactive: [1] 9% | [2] 9% | [3] -7% | [4] 8% | [5] 7% | [6] 27% | [7] 29% | [8] 4% | [9] 5% | [10] 9% | [11] -8% | [12] 1% | [13] -1% | [14] 19% | [15] -8% | [16] -8% | [17] 8% | [18] 69% | [19] 1% | [20] -22% | [21] -2% | [22] -3% | [23] -1% | [24] 5% | [25] -2% | [26] -8% | [27] -4%
